# Assay results reported in US10556888B2, “Pyrazole compounds or salts thereof, preparation methods therefor, herbicidal compositions and use thereof” (QINGDAO KINGAGROOT CHEMICAL COMPOUNDS CO., LTD, priority 2015, dated 2020).
# Experiments:
# [1] = system: Monocotyledonous and dicotyledonous weed; test: Post-emergence test experiment, weed control effect (Table 2); format: in vivo; set-up: key to weed control effect, Setaria viridis (level) / weed control effect, Rorippa indica (level) / weed control effect, Abutilon theophrasti (level) / weed control effect, Echinochloa crus-galli (level) / weed control effect, Digitaria sanguinalis (level): Level 10: completely dead; Level 9: above 90% growth inhibition rate; Level 8: above 80% growth inhibition rate; Level 7: above 70% growth inhibition rate; Level 6: above 60% growth inhibition rate; Level 5: above 50% growth inhibition rate; Level 4: above 30% growth inhibition rate; Level 3: above 20% growth inhibition rate; Level 2: above 10% growth inhibition rate; Level 1: above 1-10% growth inhibition rate; Level 0: no effect; settings: 3 weeks after spraying, greenhouse
# Procedure, shortened: (§1)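 Compounds, dissolved in acetone, mixed with Tween 80 and diluted in water, were sprayed post-emergence onto greenhouse-grown weeds and crops at the 2-3 leaf stage (2-3 weeks post-sowing). Plants then grown 3 more weeks in the greenhouse before evaluation.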
# [2] = system: main crop (wheat, corn, rice, soybean, cotton, oilseed, millet and sorghum); test: Post-emergence test experiment, main crops (Table 2); format: in vivo; set-up: key: Level 10: completely dead; Level 9: above 90% growth inhibition rate; Level 8: above 80% growth inhibition rate; Level 7: above 70% growth inhibition rate; Level 6: above 60% growth inhibition rate; Level 5: above 50% growth inhibition rate; Level 4: above 30% growth inhibition rate; Level 3: above 20% growth inhibition rate; Level 2: above 10% growth inhibition rate; Level 1: above 1-10% growth inhibition rate; Level 0: no effect; settings: 3 weeks after spraying, greenhouse
# Procedure, shortened: as §1
Compound,"weed control effect, Abutilon theophrasti (level) ([1]; 30 g/ha)","weed control effect, Bidens pilosa (level) ([1]; 30 g/ha)","weed control effect, Digitaria sanguinalis (level) ([1]; 30 g/ha)","weed control effect, Echinochloa crus-galli (level) ([1]; 30 g/ha)","weed control effect, Rorippa indica (level) ([1]; 30 g/ha)","weed control effect, Setaria viridis (level) ([1]; 30 g/ha)","effect on crop, corn (level) ([2]; 30 g/ha)","effect on crop, rice (level) ([2]; 30 g/ha)","effect on crop, wheat (level) ([2]; 30 g/ha)",further results
CCOCCOCc1c(S(C)(=O)=O)ccc(C(=O)c2c(C)nn(C)c2OC(=O)c2cn(C)nc2C)c1Cl [Compound 39],–,–,–,–,–,–,–,–,–,"weed control effect, Abutilon theophrasti (level) ([1]; 60 g/ha): 10; weed control effect, Bidens pilosa (level) ([1]; 60 g/ha): 8 (Level 8: above 80% growth inhibition rate); weed control effect, Digitaria sanguinalis (level) ([1]; 60 g/ha): 9 (Level 9: above 90% growth inhibition rate); weed control effect, Echinochloa crus-galli (level) ([1]; 60 g/ha): 10; weed control effect, Rorippa indica (level) ([1]; 60 g/ha): 10; weed control effect, Setaria viridis (level) ([1]; 60 g/ha): 10; effect on crop, corn (level) ([2]; 60 g/ha): 0; effect on crop, rice (level) ([2]; 60 g/ha): 1 (Level 1: above 1-10% growth inhibition rate); effect on crop, wheat (level) ([2]; 60 g/ha): 0"
Cn1cc(C(=O)Oc2c(C(=O)c3ccc(S(C)(=O)=O)c(Cn4cccn4)c3Cl)c(C3CC3)nn2C)cn1 [Compound 19],–,–,–,–,–,–,–,–,–,"weed control effect, Abutilon theophrasti (level) ([1]; 60 g/ha): 10; weed control effect, Bidens pilosa (level) ([1]; 60 g/ha): 8 (Level 8: above 80% growth inhibition rate); weed control effect, Digitaria sanguinalis (level) ([1]; 60 g/ha): 10; weed control effect, Echinochloa crus-galli (level) ([1]; 60 g/ha): 10; weed control effect, Rorippa indica (level) ([1]; 60 g/ha): 10; weed control effect, Setaria viridis (level) ([1]; 60 g/ha): 8 (Level 8: above 80% growth inhibition rate); effect on crop, corn (level) ([2]; 60 g/ha): 0; effect on crop, rice (level) ([2]; 60 g/ha): 1 (Level 1: above 1-10% growth inhibition rate); effect on crop, wheat (level) ([2]; 60 g/ha): 0"
Cc1cnn(Cc2c(S(C)(=O)=O)ccc(C(=O)c3cnn(C)c3OC(=O)c3cn(C)nc3C)c2Cl)c1 [Compound 07],–,–,–,–,–,–,–,–,–,"weed control effect, Abutilon theophrasti (level) ([1]; 120 g/ha): 6 (Level 6: above 60% growth inhibition rate); weed control effect, Bidens pilosa (level) ([1]; 120 g/ha): 6 (Level 6: above 60% growth inhibition rate); weed control effect, Digitaria sanguinalis (level) ([1]; 120 g/ha): 1 (Level 1: above 1-10% growth inhibition rate); weed control effect, Echinochloa crus-galli (level) ([1]; 120 g/ha): 10; weed control effect, Rorippa indica (level) ([1]; 120 g/ha): 4 (Level 4: above 30% growth inhibition rate); weed control effect, Setaria viridis (level) ([1]; 120 g/ha): 5 (Level 5: above 50% growth inhibition rate); effect on crop, corn (level) ([2]; 120 g/ha): 0; effect on crop, rice (level) ([2]; 120 g/ha): 0; effect on crop, wheat (level) ([2]; 120 g/ha): 0"
CCc1nn(C)c(OC(=O)c2cn(C)nc2C)c1C(=O)c1ccc(S(C)(=O)=O)c(Cn2nc(C)cc2C)c1Cl [Compound 30],–,–,–,–,–,–,–,–,–,"weed control effect, Abutilon theophrasti (level) ([1]; 120 g/ha): 6 (Level 6: above 60% growth inhibition rate); weed control effect, Bidens pilosa (level) ([1]; 120 g/ha): 6 (Level 6: above 60% growth inhibition rate); weed control effect, Digitaria sanguinalis (level) ([1]; 120 g/ha): 4 (Level 4: above 30% growth inhibition rate); weed control effect, Echinochloa crus-galli (level) ([1]; 120 g/ha): 8 (Level 8: above 80% growth inhibition rate); weed control effect, Rorippa indica (level) ([1]; 120 g/ha): 4 (Level 4: above 30% growth inhibition rate); weed control effect, Setaria viridis (level) ([1]; 120 g/ha): 10; effect on crop, corn (level) ([2]; 120 g/ha): 0; effect on crop, rice (level) ([2]; 120 g/ha): 0; effect on crop, wheat (level) ([2]; 120 g/ha): 0"
CCc1nn(C)c(C(=O)Oc2c(C(=O)c3ccc(S(C)(=O)=O)c(Cn4cccn4)c3Cl)c(C)nn2C(C)C)c1Cl [Compound 106],–,–,–,–,–,–,–,–,–,"weed control effect, Abutilon theophrasti (level) ([1]; 60 g/ha): 10; weed control effect, Bidens pilosa (level) ([1]; 60 g/ha): 8 (Level 8: above 80% growth inhibition rate); weed control effect, Digitaria sanguinalis (level) ([1]; 60 g/ha): 8 (Level 8: above 80% growth inhibition rate); weed control effect, Echinochloa crus-galli (level) ([1]; 60 g/ha): 10; weed control effect, Rorippa indica (level) ([1]; 60 g/ha): 10; weed control effect, Setaria viridis (level) ([1]; 60 g/ha): 10; effect on crop, corn (level) ([2]; 60 g/ha): 0; effect on crop, rice (level) ([2]; 60 g/ha): 1 (Level 1: above 1-10% growth inhibition rate); effect on crop, wheat (level) ([2]; 60 g/ha): 0"
COCCCOCc1c(S(C)(=O)=O)ccc(C(=O)c2cnn(C)c2OC(=O)c2cnn(C)c2)c1Cl [Compound 62],7 (Level 7: above 70% growth inhibition rate),7 (Level 7: above 70% growth inhibition rate),7 (Level 7: above 70% growth inhibition rate),10,10,7 (Level 7: above 70% growth inhibition rate),0,3 (Level 3: above 20% growth inhibition rate),0,–
C#CCOCc1c(S(C)(=O)=O)ccc(C(=O)c2c(C)nn(C)c2OC(=O)c2cnn(C)c2OCC)c1Cl [Compound 56],7 (Level 7: above 70% growth inhibition rate),7 (Level 7: above 70% growth inhibition rate),7 (Level 7: above 70% growth inhibition rate),10,10,9 (Level 9: above 90% growth inhibition rate),0,3 (Level 3: above 20% growth inhibition rate),0,–
CC=CCOCc1c(S(C)(=O)=O)ccc(C(=O)c2cnn(C)c2OC(=O)c2cn(C)nc2C)c1Cl [Compound 43],7 (Level 7: above 70% growth inhibition rate),7 (Level 7: above 70% growth inhibition rate),7 (Level 7: above 70% growth inhibition rate),10,10,9 (Level 9: above 90% growth inhibition rate),0,3 (Level 3: above 20% growth inhibition rate),0,–
C#CCOCc1c(S(C)(=O)=O)ccc(C(=O)c2c(C3CC3)nn(C)c2OC(=O)c2cn(C)nc2C)c1Cl [Compound 47],7 (Level 7: above 70% growth inhibition rate),7 (Level 7: above 70% growth inhibition rate),7 (Level 7: above 70% growth inhibition rate),10,10,9 (Level 9: above 90% growth inhibition rate),0,3 (Level 3: above 20% growth inhibition rate),0,–
COCCCOCc1c(S(C)(=O)=O)ccc(C(=O)c2c(C3CC3)nn(C)c2OC(=O)c2cn(C)nc2C)c1Cl [Compound 52],7 (Level 7: above 70% growth inhibition rate),7 (Level 7: above 70% growth inhibition rate),7 (Level 7: above 70% growth inhibition rate),10,10,6 (Level 6: above 60% growth inhibition rate),1 (Level 1: above 1-10% growth inhibition rate),3 (Level 3: above 20% growth inhibition rate),0,–
CCOCCOCc1c(S(C)(=O)=O)ccc(C(=O)c2cnn(C)c2OC(=O)c2cn(C)nc2C)c1Cl [Compound 45],7 (Level 7: above 70% growth inhibition rate),7 (Level 7: above 70% growth inhibition rate),7 (Level 7: above 70% growth inhibition rate),9 (Level 9: above 90% growth inhibition rate),10,7 (Level 7: above 70% growth inhibition rate),0,3 (Level 3: above 20% growth inhibition rate),0,–
